Test results taken from PMC6988089 (Journal of the American Chemical Society, 2019).

Columns and labels:
Assay type in all cases: biochemical
G9a Y1154A mutant = experiment: Substrate peptide alkylation by G9a-Y1154A with SAM analogues; details: TAMRA-labeled H3K9 peptide; MALDI-MS
G9a Y1154G mutant = experiment: Substrate peptide benzylation by G9a-Y1154G
Y372G mutant of Suv39H2 = experiment: Benzylation of substrate peptide and full-length H3 by Suv39H2-Y372G
[1] = system: Suv39H2 mutant / hole-modified CBX1; details: full-length H3 and purified mononucleosomes; Western blot

Nc1ncnc2c1ncn2[C@@H]1O[C@H](C[S+](CC[C@H](N)C(=O)O)Cc2ccccc2)[C@@H](O)[C@H]1O (some centres unmarked) [benzyl-SAM]
substrate modification by G9a-Y1154A (G9a Y1154A mutant): not efficient at incorporating benzyl modification | substrate benzylation by G9a-Y1154G (G9a Y1154G mutant; TAMRA-labeled H3K9 peptide, MALDI-MS): complete substrate benzylation | dibenzylation of substrate by G9a mutant (G9a Y1154G mutant; under our assay conditions, Figure S2): did not observe any dibenzylation | utilization of benzyl-SAM by Suv39H2-Y372G (Y372G mutant of Suv39H2): efficiently utilized benzyl-SAM | H3 signal after enrichment with hole-modified CBX1 [1]: signal for H3 only in the presence of benzyl-SAM
